Assay results published in patent publication US20250051277A1, “DELIVERY OF THERAPEUTIC ALKALOID COMPOUNDS” (Sensorium Therapeutics, Inc., priority 2021, published 2025).
Like-named read-outs stand apart in the source and are kept apart here.

Key:
[1] = assay type: physicochemical; conditions: DI water, 25° C., 0.5 mM
[2] = assay type: physicochemical; conditions: SGF with pepsin, pH 1.5, 37° C.; for Condition 1 Conversion (%): 0.5 mM; for Condition 1 Conversion (%), first value of pair x/y: first of two values; for Condition 1 Conversion (%), second value of pair x/y: second of two values

COc1ccc([C@@]23CCC(=NOCC(=O)OC(C)(C)C)C[C@@H]2N(C)CC3)cc1OC [Compound 202, tert-butyl 2-[[(3aS,7aS)-3a-(3,4-dimethoxyphenyl)-1-methyl-2,3,4,5,7,7a-hexahydroindol-6-ylidene]amino]oxyacetate]
3.01%: Condition 1 Conversion (%), first value of pair x/y ([2]; time 4 h)
6.42%: Condition 1 Conversion (%), second value of pair x/y ([2]; time 4 h) | Condition 1 Conversion (%), second value of pair x/y ([2]; time 24 h)
64.4%: Condition 1 Conversion (%), first value of pair x/y ([2]; time 24 h)
1.12%: Condition 1 Conversion (%), first value of pair x/y ([2]; time 1 h)
0%: Condition 2 Conversion (%) ([1]; time 1 min) | Condition 2 Conversion (%) ([1]; time 5 min) | Condition 2 Conversion (%) ([1]; time 30 min) | Condition 2 Conversion (%) ([1]; time 1 h) | Condition 2 Conversion (%) ([1]; time 4 h) | Condition 2 Conversion (%) ([1]; time 24 h) | Condition 1 Conversion (%) ([2]; time 1 min) | Condition 1 Conversion (%) ([2]; time 5 min) | Condition 1 Conversion (%) ([2]; time 30 min) | Condition 1 Conversion (%), second value of pair x/y ([2]; time 1 h)

COc1ccc([C@@]23CCC(=NOCCO)C[C@@H]2N(C)CC3)cc1OC [Compound 203, 2-[[(3aS,7aS)-3a-(3,4-dimethoxyphenyl)-1-methyl-2,3,4,5,7,7a-hexahydroindol-6-ylidene]amino]oxyethanol]
0%: Condition 2 Conversion (%) ([1]; time 1 min) | Condition 2 Conversion (%) ([1]; time 5 min) | Condition 2 Conversion (%) ([1]; time 30 min) | Condition 2 Conversion (%) ([1]; time 1 h) | Condition 2 Conversion (%) ([1]; time 4 h) | Condition 2 Conversion (%) ([1]; time 24 h) | Condition 1 Conversion (%) ([2]; time 1 min) | Condition 1 Conversion (%) ([2]; time 5 min) | Condition 1 Conversion (%) ([2]; time 30 min) | Condition 1 Conversion (%) ([2]; time 1 h)
26.48%: Condition 1 Conversion (%) ([2]; time 24 h)
18.58%: Condition 1 Conversion (%) ([2]; time 4 h)

COc1ccc([C@@]23CC/C(=N\OC(C)(C)OC)C[C@@H]2N(C)CC3)cc1OC [Compound 204, (E,3aS,7aS)-3a-(3,4-dimethoxyphenyl)-N-(1-methoxy-1-methyl-ethoxy)-1-methyl-2,3,4,5,7,7a-hexahydroindol-6-imine]
100%: Condition 1 Conversion (%), first value of pair x/y ([2]; time 1 min) | Condition 1 Conversion (%), first value of pair x/y ([2]; time 5 min) | Condition 1 Conversion (%), second value of pair x/y ([2]; time 30 min) | Condition 1 Conversion (%), second value of pair x/y ([2]; time 1 h) | Condition 1 Conversion (%), second value of pair x/y ([2]; time 4 h) | Condition 1 Conversion (%), second value of pair x/y ([2]; time 24 h)
0%: Condition 2 Conversion (%) ([1]; time 1 min) | Condition 2 Conversion (%) ([1]; time 5 min) | Condition 2 Conversion (%) ([1]; time 30 min) | Condition 2 Conversion (%) ([1]; time 1 h) | Condition 2 Conversion (%) ([1]; time 4 h) | Condition 2 Conversion (%) ([1]; time 24 h) | Condition 1 Conversion (%), second value of pair x/y ([2]; time 1 min) | Condition 1 Conversion (%), second value of pair x/y ([2]; time 5 min) | Condition 1 Conversion (%), first value of pair x/y ([2]; time 30 min) | Condition 1 Conversion (%), first value of pair x/y ([2]; time 1 h) | Condition 1 Conversion (%), first value of pair x/y ([2]; time 4 h) | Condition 1 Conversion (%), first value of pair x/y ([2]; time 24 h)

COc1ccc([C@@]23CCC(=NOCC4CC4)C[C@@H]2N(C)CC3)cc1OC [Compound 205, (3aS,7aS)-N-(cyclopropylmethoxy)-3a-(3,4-dimethoxyphenyl)-1-methyl-2,3,4,5,7,7a-hexahydroindol-6-imine]
4.5%: Condition 1 Conversion (%) ([2]; time 30 min)
19.3%: Condition 1 Conversion (%) ([2]; time 24 h)
16.7%: Condition 1 Conversion (%) ([2]; time 4 h)
9.4%: Condition 1 Conversion (%) ([2]; time 1 h)
0%: Condition 2 Conversion (%) ([1]; time 1 min) | Condition 2 Conversion (%) ([1]; time 5 min) | Condition 2 Conversion (%) ([1]; time 30 min) | Condition 2 Conversion (%) ([1]; time 1 h) | Condition 2 Conversion (%) ([1]; time 4 h) | Condition 2 Conversion (%) ([1]; time 24 h) | Condition 1 Conversion (%) ([2]; time 1 min) | Condition 1 Conversion (%) ([2]; time 5 min)

COc1ccc([C@@]23CCC(=NOC4CCCCO4)C[C@@H]2N(C)CC3)cc1OC (stereo partly drawn) [Compound 206, (3aS,7aS)-3a-(3,4-dimethoxyphenyl)-1-methyl-N-tetrahydropyran-2-yloxy-2,3,4,5,7,7a-hexahydroindol-6-imine]
77.75%: Condition 1 Conversion (%), second value of pair x/y ([2]; time 4 h)
0%: Condition 2 Conversion (%) ([1]; time 1 min) | Condition 2 Conversion (%) ([1]; time 5 min) | Condition 2 Conversion (%) ([1]; time 30 min) | Condition 2 Conversion (%) ([1]; time 1 h) | Condition 2 Conversion (%) ([1]; time 4 h) | Condition 2 Conversion (%) ([1]; time 24 h) | Condition 1 Conversion (%) ([2]; time 1 min) | Condition 1 Conversion (%) ([2]; time 5 min) | Condition 1 Conversion (%), second value of pair x/y ([2]; time 30 min) | Condition 1 Conversion (%), first value of pair x/y ([2]; time 4 h) | Condition 1 Conversion (%), first value of pair x/y ([2]; time 24 h)
100%: Condition 1 Conversion (%), second value of pair x/y ([2]; time 24 h)
2.57%: Condition 1 Conversion (%), second value of pair x/y ([2]; time 1 h)
1.41%: Condition 1 Conversion (%), first value of pair x/y ([2]; time 30 min)
7.83%: Condition 1 Conversion (%), first value of pair x/y ([2]; time 1 h)

COc1ccc([C@@]23CCC(=NOc4ccccc4)C[C@@H]2N(C)CC3)cc1OC [Compound 207, (3aS,7aS)-3a-(3,4-dimethoxyphenyl)-1-methyl-N-phenoxy-2,3,4,5,7,7a-hexahydroindol-6-imine]
1.5%: Condition 1 Conversion (%) ([2]; time 4 h)
0%: Condition 2 Conversion (%) ([1]; time 1 min) | Condition 2 Conversion (%) ([1]; time 5 min) | Condition 2 Conversion (%) ([1]; time 30 min) | Condition 2 Conversion (%) ([1]; time 1 h) | Condition 2 Conversion (%) ([1]; time 4 h) | Condition 2 Conversion (%) ([1]; time 24 h) | Condition 1 Conversion (%) ([2]; time 1 min) | Condition 1 Conversion (%) ([2]; time 5 min) | Condition 1 Conversion (%) ([2]; time 30 min) | Condition 1 Conversion (%) ([2]; time 1 h)
7.9%: Condition 1 Conversion (%) ([2]; time 24 h)

COc1ccc([C@@]23CCC(=NOCc4ccccc4)C[C@@H]2N(C)CC3)cc1OC [Compound 208, (3aS,7aS)-N-benzyloxy-3a-(3,4-dimethoxyphenyl)-1-methyl-2,3,4,5,7,7a-hexahydroindol-6-imine]
0%: Condition 2 Conversion (%) ([1]; time 1 min) | Condition 2 Conversion (%) ([1]; time 5 min) | Condition 2 Conversion (%) ([1]; time 30 min) | Condition 2 Conversion (%) ([1]; time 1 h) | Condition 2 Conversion (%) ([1]; time 4 h) | Condition 2 Conversion (%) ([1]; time 24 h) | Condition 1 Conversion (%) ([2]; time 1 min) | Condition 1 Conversion (%) ([2]; time 5 min) | Condition 1 Conversion (%) ([2]; time 30 min) | Condition 1 Conversion (%) ([2]; time 1 h)
12%: Condition 1 Conversion (%) ([2]; time 24 h)
11.5%: Condition 1 Conversion (%) ([2]; time 4 h)

COc1ccc([C@@]23CCC(=NOCc4cccnc4)C[C@@H]2N(C)CC3)cc1OC [Compound 209, (3aS)-3a-(3,4-dimethoxyphenyl)-1-methyl-N-(3-pyridylmethoxy)-2,3,4,5,7,7a-hexahydroindol-6-imine]
0%: Condition 2 Conversion (%) ([1]; time 1 min) | Condition 2 Conversion (%) ([1]; time 5 min) | Condition 2 Conversion (%) ([1]; time 30 min) | Condition 2 Conversion (%) ([1]; time 1 h) | Condition 2 Conversion (%) ([1]; time 4 h) | Condition 2 Conversion (%) ([1]; time 24 h) | Condition 1 Conversion (%) ([2]; time 1 min) | Condition 1 Conversion (%) ([2]; time 5 min) | Condition 1 Conversion (%) ([2]; time 30 min) | Condition 1 Conversion (%) ([2]; time 1 h) | Condition 1 Conversion (%) ([2]; time 4 h) | Condition 1 Conversion (%) ([2]; time 24 h)

COc1ccc([C@@]23CCC(=NOCCON=C4CC[C@@]5(c6ccc(OC)c(OC)c6)CCN(C)[C@H]5C4)C[C@@H]2N(C)CC3)cc1OC [Compound 210, (3aS,7aS)-N-[2-[[(3aS,7aS)-3a-(3,4-dimethoxyphenyl)-1-methyl-2,3,4,5,7,7a-hexahydroindol-6-ylidene]amino]oxyethoxy]-3a-(3,4-dimethoxyphenyl)-1-methyl-2,3,4,5,7,7a-hexahydroindol-6-imine]
7.51%: Condition 1 Conversion (%) ([2]; time 1 h)
0%: Condition 2 Conversion (%) ([1]; time 1 min) | Condition 2 Conversion (%) ([1]; time 5 min) | Condition 2 Conversion (%) ([1]; time 30 min) | Condition 2 Conversion (%) ([1]; time 1 h) | Condition 2 Conversion (%) ([1]; time 4 h) | Condition 2 Conversion (%) ([1]; time 24 h) | Condition 1 Conversion (%) ([2]; time 1 min) | Condition 1 Conversion (%) ([2]; time 5 min)
15.35%: Condition 1 Conversion (%) ([2]; time 24 h)
14.75%: Condition 1 Conversion (%) ([2]; time 4 h)
3.48%: Condition 1 Conversion (%) ([2]; time 30 min)
